Values after ≈ are worked out from the molar mass of the structure shown.
Columns and labels:
C. albicans 4711E = experiment: in vitro antifungal screen, MIC by two-fold serial dilution; assay type: cell-based, Candida albicans
Protocol: (§1) The antifungal activity of the compounds of formula (I) may be determined using conventional in vitro and in vivo screens. Thus, the in vitro evaluation of the anti-fungal activity of compounds of the invention was performed on liquid or solid medium by the anti-fungal two-fold serial dilution technique of determining the minimum inhibitory concentration (MIC) of anti-fungal agent that inhibited development of growth after 24 to 48 hours of incubation at 37° C. In practice, a series of agar plates or broth microdilution panels containing two-fold dilutions of anti-fungal agent tested were inoculated with a standard culture of a clinically relevant pathogen, for example, Candida albicans. The agar plates or broth microdulution panels were then examined for the presence or absence of growth of the fungus and the appropriate MIC values were noted.
(§2) Compounds of formula (I) have been tested for anti fungal activity in a standard in vitro screen and the minimum inhibiting concentration (MIC; μg/ml) determined for each compound against a variety of clinically relevant pathogens.

C. albicans CL-236 = experiment: as above; assay type: cell-based, Candida albicans
Protocol: as §1, §2

C. glabrata 522 = experiment: as above; assay type: cell-based, Candida glabrata
Protocol: as §1, §2

C. glabrata 2375E = experiment: as above; assay type: cell-based, Candida glabrata
Protocol: as §1, §2

C. parapsilosis 2372E = experiment: as above; assay type: cell-based, Candida parapsilosis
Protocol: as §1, §2

C. tropicalis 2808E = experiment: as above; assay type: cell-based, Candida tropicalis
Protocol: as §1, §2

[1] = test system: C. pseudotropicalis 2371E; experiment: as above; assay type: cell-based, Candida pseudotropicalis
Protocol: as §1, §2

[2] = toxicity (LD50) in female mice; assay type: in vivo; conditions: iv
Protocol: (§3) The compounds of the invention are essentially non-toxic at therapeutically useful levels. For example, the compound of Example 2 when admistered orally in a system candidiasis test (C.albicans 4711E) in mice, has an ED50 value of 9.0 mg/kg. The LD50 value for the compound of example 2, in female mice is >300 mg/kg iv.

C.albicans 4711E = experiment: system candidiasis test in mice; assay type: in vivo; conditions: administered orally, system candidiasis test (C.albicans 4711E) in mice
Protocol: The fungicidal activity of the compounds of formula (I) may also be determined in conventional tests in animals e.g. rats and mice. For example the lethal systems candidiasis test in mice.
as §3

| Compound | MIC (C. albicans 4711E) | MIC (C. albicans CL-236) | MIC (C. glabrata 522) [µg/mL] | MIC (C. glabrata 2375E) [µg/mL] | MIC (C. parapsilosis 2372E) [µg/mL] | MIC (C. tropicalis 2808E) | MIC [1] | LD50 [2] [mg/kg] | ED50 (C.albicans 4711E) [mg/kg] |
| --- | --- | --- | --- | --- | --- | --- | --- | --- | --- |
| CC1CN(Cc2ccccc2)CC(OCC23CC4C(C)CCC4C4(C=O)CC2C=C(C(C)C)C43C(=O)O)O1 [Example 1i, [1R-(1α,3aβ,4β,4aβ,7β,7aα,8aβ)]8a-[(2R,6R)-(4-benzyl-6-methylmorpholin-2-yl)-oxymethyl]-4-formyl-4,4a,5,6,7,7a,8,8a-octahydro-7-methyl-3-(1-methylethyl)-1,4-methano-s-indacene-3a(1H)-carboxylic acid] | ≦0.001 μg/ml | ≦0.001 μg/ml | 1 (≈ 1.92 µM) | 1 (≈ 1.92 µM) | >125 | 0.008 µg/mL (≈ 0.0153 µM) |  |  |  |
| C=CCN1CC(C)OC(OCC23CC4C(C)CCC4C4(C=O)CC2C=C(C(C)C)C43C(=O)O)C1 [Example 2, [1R-(1α,3aβ,4β,4aβ,7β, 7aα,8aβ)]8a-[(2R,6R)-(4-allyl-6-methyl-morpholin-2-yl)-oxymethyl]-4-formyl-4,4a,5,6,7,7a,8,8a-octahydro-7-methyl-3-(1-methylethyl)-1,4-methano-s-indacene-3a(1H)-carboxylic acid] | 0.008 µg/mL (≈ 0.017 µM) | 0.03 µg/mL (≈ 0.0636 µM) | 0.5 (≈ 1.06 µM) | 0.5 (≈ 1.06 µM) | >125 | 0.03 µg/mL (≈ 0.0636 µM) | 0.004 µg/mL (≈ 0.00848 µM) | > 300 | 9.0 |
| CC1CN(C2CC2)CC(OCC23CC4C(C)CCC4C4(C=O)CC2C=C(C(C)C)C43C(=O)[O-])O1.[K+] [Example 4, [1R-(1α,3aβ,4β,4aβ,7β,7aα,8aβ)]8a-[(2R,6R)-(4-cyclopropyl-6-methyl-morpholin-2-yl)-oxymethyl]-4-formyl-4,4a,5,6,7,7a,8,8a-octahydro-7-methyl-3-(1-methylethyl)-1,4-methano-s-indacene-3a(1H)-carboxylic acid, potassium salt] | ≦0.001 μg/ml | 0.015 µg/mL | 4 | 4 | >125 | 0.06 µg/mL | 0.004 µg/mL |  |  |
| C#CCN1CC(C)OC(OCC23CC4C(C)CCC4C4(C=O)CC2C=C(C(C)C)C43C(=O)O)C1 [Example 6, [1R-(1α,3aβ,4β,4aβ,7β,7aα,8aβ)]8a-[(2R,6R)-(4-(2-propynyl)-6-methyl-morpholin-2-yl)-oxymethyl]-4-formyl-4,4a,5,6,7,7a,8,8a-octahydro-7-methyl-3-(1-methylethyl)-1,4-methano-s-indacene-3a(1H)-carboxylic acid] | 0.008 µg/mL (≈ 0.017 µM) | 0.015 µg/mL (≈ 0.0319 µM) | 0.5 (≈ 1.06 µM) | 0.25 (≈ 0.532 µM) | 16 (≈ 34.1 µM) | 0.06 µg/mL (≈ 0.128 µM) | 0.015 µg/mL (≈ 0.0319 µM) |  |  |
| C=C(Br)CN1CC(C)OC(OCC23CC4C(C)CCC4C4(C=O)CC2C=C(C(C)C)C43C(=O)O)C1 [Example 7, [1R-(1α,3aβ,4β,4aβ,7β,7aα,8aβ)]8a-[(2R,6R)-(4-(2-bromoallyl)-6-methyl-morpholin-2-yl)-oxymethyl]-4-formyl-4,4a,5,6,7,7a,8,8a-octahydro-7-methyl-3-(1-methylethyl)-1,4-methano-s-indacene-3a(1H)-carboxylic acid] | ≦0.001 μg/ml | 0.008 µg/mL (≈ 0.0145 µM) | 0.25 (≈ 0.454 µM) | 0.25 (≈ 0.454 µM) | 4 (≈ 7.27 µM) | 0.008 µg/mL (≈ 0.0145 µM) | ≦0.001 μg/ml |  |  |
| C=C(Cl)CN1CC(C)OC(OCC23CC4C(C)CCC4C4(C=O)CC2C=C(C(C)C)C43C(=O)O)C1 (stereo not drawn) [Example 8, [1R-(1α,3aβ,4β,4aβ,7β,7aα,8aβ)]8a-[(2R6R)-(4-(2-chloroallyl)-6-methyl-morpholin-2-yl)-oxymethyl]-4-formyl-4,4a,5,6,7,7a,8,8a-octahydro-7-methyl-3-(1-methylethyl)-1,4-methano-s-indacene-3a(1H)-carboxylic acid] | ≦0.001 μg/ml | ≦0.001 μg/ml | 0.03 (≈ 0.0593 µM) | 0.03 (≈ 0.0593 µM) | 1 (≈ 1.98 µM) | ≦0.001 μg/ml | ≦0.001 μg/ml |  |  |
| CC1CN(CC=C(F)F)CC(OCC23CC4C(C)CCC4C4(C=O)CC2C=C(C(C)C)C43C(=O)O)O1 [Example 10, [1R-(1α,3aβ,4β,4aβ,7β,7aα,8aβ)]8a-[(2R,6R)-(4-(3,3-difluoroallyl)-6-methyl-morpholin-2-yl)-oxymethyl]-4-formyl-4,4a,5,6,7,7a,8,8a-octahydro-7-methyl-3-(1-methylethyl)-1,4-methano-s-indacene-3a(1H)-carboxylic acid] | 0.03 µg/mL (≈ 0.0591 µM) | 0.06 µg/mL (≈ 0.118 µM) | 1 (≈ 1.97 µM) | 1 (≈ 1.97 µM) | 16 (≈ 31.5 µM) | 0.06 µg/mL (≈ 0.118 µM) | 0.03 µg/mL (≈ 0.0591 µM) |  |  |
| C=C(C)CN1C[C@H](OC[C@@]23C[C@@H]4[C@H](C)CC[C@H]4[C@@]4(C=O)C[C@@H]2C=C(C(C)C)[C@@]34C(=O)O)O[C@H](C)C1 [Example 12] | ≦0.001 μg/ml | ≦0.001 μg/ml | 0.25 (≈ 0.515 µM) | 0.25 (≈ 0.515 µM) | 1 (≈ 2.06 µM) | 0.008 µg/mL (≈ 0.0165 µM) | ≦0.001 μg/ml |  |  |
| C=C=CCN1CC(C)OC(OCC23CC4C(C)CCC4C4(C=O)CC2C=C(C(C)C)C43C(=O)O)C1 [Example 14, [1R-(1α,3aβ,4β,4aβ,7β,7aα,8aβ)]8a-[(2R,6R)-4-(2,3-butadienyl)-6-methyl-morpholin-2-yl)-oxymethyl]-4-formyl-4,4a,5,6,7,7a,8,8a-octahydro-7-methyl-3-(1-methylethyl)-1,4-methano-s-indacene-3a(1H)-carboxylic acid] | ≦0.001 μg/ml | 0.004 µg/mL (≈ 0.00827 µM) | 0.12 (≈ 0.248 µM) | 0.12 (≈ 0.248 µM) | 8 (≈ 16.5 µM) | 0.015 µg/mL (≈ 0.031 µM) | ≦0.001 μg/ml |  |  |
| COc1ccc(CN2CC(C)OC(OCC34CC5C(C)CCC5C5(C=O)CC3C=C(C(C)C)C54C(=O)O)C2)cc1 [Example 16, [1R-(1α,3aβ,4β,4aβ,7β,7aα,8β)]8a-[(2R,6R)4-(4-methoxybenzyl)-6-methyl-morpholin-2-yl)-oxymethyl]-4-formyl-4,4a,5,6,7,7a,8,8a-octahydro-7-methyl-3-(1-methylethyl)-1,4-methano-s-indacene-3a(1H)-carboxylic acid] | ≦0.001 μg/ml | ≦0.001 μg/ml | 0.25 (≈ 0.453 µM) | 0.25 (≈ 0.453 µM) | 2 (≈ 3.63 µM) | 0.008 µg/mL (≈ 0.0145 µM) | ≦0.001 μg/ml |  |  |
| CON1CC(C)OC(OCC23CC4C(C)CCC4C4(C=O)CC2C=C(C(C)C)C43C(=O)O)C1 [Example 18, 1R-(1α,3aβ,4β,4aβ,7β,7aα,8aβ)]8a-[(2R,6R)-6-methyl-4-methoxy-morpholin-2-yl)-oxymethyl]-4-formyl-4,4a,5,6,7,7a,8,8a-octahydro-7-methyl-3-(1-methylethyl)-1,4-methano-s-indacene-3a(1H)-carboxylic acid] | 0.03 µg/mL (≈ 0.065 µM) | 0.25 µg/mL (≈ 0.542 µM) | 8 (≈ 17.3 µM) | 8 (≈ 17.3 µM) | >125 | 1 µg/mL (≈ 2.17 µM) |  |  |  |
| C=CCN1C[C@H](OC[C@@]23C[C@@H]4[C@H](C)CC[C@H]4[C@@]4(C#N)C[C@@H]2C=C(C(C)C)[C@@]34C(=O)O)O[C@H](C)C1 [Example 25, [1R-(1α,3aβ,4β,4aβ,7β,7aα,8aβ)]8a-[(2R,6R)-(4-allyl-6-methyl-morpholin-2-yl)-oxymethyl]-4-cyano4,4a,5,6,7,7a,8,8a-octahydro-7-methyl-3-(1-methylethyl)-1,4-methano-s-indacene-3a(1H)-carboxylic acid] | 0.25 µg/mL (≈ 0.533 µM) | 0.25 µg/mL (≈ 0.533 µM) | 0.5 (≈ 1.07 µM) | 0.5 (≈ 1.07 µM) | >125 | 0.5 µg/mL (≈ 1.07 µM) | 0.12 µg/mL (≈ 0.256 µM) |  |  |
